Measured values as given in US11197857B2, “Combination therapy” (GlaxoSmithKline Intellectual Property Development Limited, priority 2016, dated 2021).
Where two headings read alike, the source gives them in different places.

Key:
[1] = test system: MDM4 splicing, SDMA, p53 and p21 in MCL lines; assay: MDM4 splicing (RT-PCR) and SDMA/p53/p21 western; assay type: cell-based
Protocol: To understand whether p53 activation is associated with MDM4 isoform switching, MDM4 alternative splicing was analyzed. […] The role of the p53 pathway in the biology of the response of p53 wild-type MCL cells to PRMT5 inhibition is being evaluated.

[2] = target: 19 enzymes: Type I and Type II PRMTs and lysine methyltransferases (KMTs); assay: methyltransferase selectivity panel; assay type: biochemical; conditions: for selectivity over other methyltransferases: PRMT5 tool compounds
Excerpt: FIG. 31: Phylogenetic tree highlighting the methyltransferases tested in the selectivity panel. […] PRMT9 is shown for relationship purposes only within the family tree and was not evaluated in the panel. Figure adapted from Richon V M. et al.
PRMT9/FBXO11, which is the other Type II PRMT and the only PRMT to lack the THW loop, was not included due to the lack of a functional enzyme assay.

[3] = test system: panel of cancer cell lines; assay: cells; assay type: cell-based
Excerpt: DLBCL-diffuse large B-cell lymphoma, GBM-glioblastoma, MCL-mantle cell lymphoma, MM-multiple myeloma
The cell lines were selected to represent tumor types where PRMT5 activity has been reported to regulate key pathways and/or cell growth and survival (such as lymphoma and MCL, glioma, breast and lung cancer lines).

Z138 MCL cells = assay: 6-day growth/death assay; assay type: cell-based; conditions: Z138, 6-day
SDMA in Z138 cells = assay: SDMA ELISA; assay type: cell-based; conditions: Homo sapiens
[4] = test system: gene expression in Z138 cells; assay: qPCR gene expression (11 genes); assay type: cell-based; conditions: Homo sapiens, Z-138, 96 h, day 4
MCL cell lines = assay: 6-day growth/death CTG assay in MCL cell lines; assay type: cell-based; conditions: for IC50: read-out: gIC50
[5] = test system: Z-138 MCL xenograft model; assay: Z138 xenograft 21-day efficacy and PD; assay type: in vivo; conditions: for TGI: 21-day
Protocol: (§1) B. Quantified SDMA western data from tumors harvested at the end of the efficacy study (3 hours post last dose).

[6] = test system: Maver-1 MCL xenograft model; assay: Maver-1 xenograft efficacy and PD; assay type: in vivo; conditions: for TGI: day 18
Protocol: as §1

[7] = test system: breast cancer cell lines (SKBR3, MDA-MB-468, MCF-7, ZR-75-1); assay: longer-term (10-12 day) growth/death assay; assay type: cell-based; conditions: SKBR3, MDA-MB-468 and MCF-7 cells, prolonged exposure (7-10 days)
4 breast cancer lines = assay: propidium iodide FACS cell cycle analysis; assay type: cell-based; conditions: after 7-10 days of treatment
[8] = test system: MDA-MB-468 triple negative breast cancer xenograft model; assay: MDA-MB-468 xenograft efficacy and PK/PD; assay type: in vivo
Protocol: Next, the efficacy of PRMT5 inhibition was evaluated in in vivo models of breast cancer.

GBM cell lines = assay: 2D 6-day growth/death CTG assay; assay type: cell-based
[9] = test system: SDMA in a panel of 5 MCL lines; assay: SDMA inhibition in MCL panel; conditions: read-out: SDMA IC50
Excerpt: (B) SDMA IC50 values in a panel of MCL lines (EPIZYME data, day 4).

PRMT5/MEP50 = PRMT5/MEP50 (Homo sapiens, UniProt O14744); assay: PRMT5/MEP50 radioactive assay (3H transfer from SAM to H4 peptide / protein substrate); assay type: biochemical; conditions: close analogs of Compound C
Sequence of PRMT5/MEP50 (O14744 whole entry): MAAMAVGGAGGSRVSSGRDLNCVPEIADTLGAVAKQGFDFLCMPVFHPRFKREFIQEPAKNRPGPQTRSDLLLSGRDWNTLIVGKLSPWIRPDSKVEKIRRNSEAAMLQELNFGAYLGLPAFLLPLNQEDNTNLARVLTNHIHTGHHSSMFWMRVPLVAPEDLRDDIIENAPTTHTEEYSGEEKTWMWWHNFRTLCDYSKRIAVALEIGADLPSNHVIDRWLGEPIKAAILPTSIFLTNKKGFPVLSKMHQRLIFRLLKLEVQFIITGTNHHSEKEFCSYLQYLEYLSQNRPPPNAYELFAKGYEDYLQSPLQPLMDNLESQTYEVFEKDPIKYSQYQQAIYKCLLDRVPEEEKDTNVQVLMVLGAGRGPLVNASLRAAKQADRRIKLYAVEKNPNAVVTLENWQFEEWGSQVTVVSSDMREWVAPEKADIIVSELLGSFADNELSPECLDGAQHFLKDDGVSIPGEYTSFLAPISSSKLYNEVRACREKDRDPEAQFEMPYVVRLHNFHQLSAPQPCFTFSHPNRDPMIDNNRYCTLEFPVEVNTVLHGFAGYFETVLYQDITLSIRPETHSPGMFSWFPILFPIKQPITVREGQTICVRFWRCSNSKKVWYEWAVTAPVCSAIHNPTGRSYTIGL
Sequence of PRMT5/MEP50 (Q9BQA1 whole entry partner): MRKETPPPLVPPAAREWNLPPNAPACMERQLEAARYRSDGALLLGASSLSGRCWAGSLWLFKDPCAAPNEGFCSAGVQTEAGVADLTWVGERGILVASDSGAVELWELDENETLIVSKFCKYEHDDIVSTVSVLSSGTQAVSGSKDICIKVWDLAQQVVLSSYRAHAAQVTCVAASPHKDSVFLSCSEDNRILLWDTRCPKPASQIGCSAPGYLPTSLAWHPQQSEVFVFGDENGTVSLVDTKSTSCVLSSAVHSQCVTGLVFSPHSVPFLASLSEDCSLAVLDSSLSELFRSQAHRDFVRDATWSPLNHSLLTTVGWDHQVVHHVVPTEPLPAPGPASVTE

240 cancer cell lines = assay: 10-day 2D growth assay, 240 cell lines; assay type: cell-based
Protocol: FIG. 34: Compound B gIC50 values in cancer cell lines (n=240) from 10 day 2D growth assay. ALL-acute lymphoblastic leukemia, AML-acute myeloid leukemia, CML-chronic myeloid leukemia, DLBCL-diffuse large B-cell lymphoma, HL-Hodgkin lymphoma, HN-head and neck cancer, MM-multiple myeloma, NHL-non-Hodgkin lymphoma, NSCLC-non-small cell lung cancer, PEL-primary effusion lymphoma, SCLC-small cell lung cancer, TCL-T-cell lymphoma.
The tumor types with median gIC50<100 nM were acute myeloid leukemia (AML), chronic myelogenous leukemia (CML), Hodgkin's Lymphoma (HL), multiple myeloma (MM), breast, glioma, kidney, melanoma, and ovarian cancer.

[10] = test system: patient-derived tumor models and cell lines (n=73); assay: soft agar 3D colony formation assay; assay type: cell-based; conditions: n=73 models
Excerpt: FIG. 35: Compound E relative IC50 values from 8-13 day colony formation assay performed in patient-derived and cell line tumor models.
Tumor types with the lowest median IC50 values were large cell lung cancer, breast, kidney and glioma.

With `COc1ccc(C2=N[C@@H](c3ccc(Cl)cc3)[C@@H](c3ccc(Cl)cc3)N2C(=O)N2CCNC(=O)C2)c(OC(C)C)c1` [Nutlin-3, reference compound] the “p53 and p21 expression” value ([1]; Z138 cells, 5 μM MDM2 inhibitor (Nutlin-3)) was “increased p53 and p21 expression to similar levels”.
With `CC(=O)N1CCC(Nc2cc(C(=O)NC[C@H](O)CN3CCc4ccccc4C3)ncn2)CC1` [Compound C] the IC50 ([2]; any of the 19 enzymes) was over 40000 nM, the “potency for any other tested enzyme (FIG. 31)” value ([2]; phylogenetic tree symbol class) was > 10^−5 M and the IC50 ([3]; majority of cell lines tested, read-out: gIC50) was under 1000 nM. For the same compound, the gIC50 ([3]; most sensitive lymphoma lines (MCL and DLBCL)) was “single digit nM range”, the IC50 (Z138 MCL cells; Homo sapiens, Z-138, 144 h, read-out: gIC50) was 2.7 nM and the gIC95 (Z138 MCL cells) was 82 nM. It also gave a gIC100 (Z138 MCL cells) of 880 nM, an EC50 (SDMA in Z138 cells; Z-138, 24 h, day 1) of 7.3 nM and an EC50 (SDMA in Z138 cells; Z-138, 72 h, day 3) of 2.35 nM. For the same compound, the IC50 (SDMA in Z138 cells; Z-138, 72 h, day 3) was 4.79 nM, the EC90 (SDMA in Z138 cells; Z-138, 72 h, day 3, read-out: SDMA EC90 (complete inhibition above)) was 19 nM and the EC50 [4] was 22 to 332 nM. For the same compound, the MDM4 isoform switching ([1]; Z138 and JVM-2 cells (both p53 wild-type)) was “induced MDM4 isoform switching”, the “concentrations at which SDMA levels were undetectable by Western blot” value ([1]; Z138 cells) was “above 8 nM” and the “concentrations at which changes in MDM4 splicing and p53/p21 protein expression were apparent” value ([1]; Z138 cells) was “above 8 nM”. The “p53 and p21 expression” value ([1]; Z138 cells, 200 nM Compound C) was “increased p53 and p21 expression to similar levels”, the IC50 (MCL cell lines; 1 cell line of the MCL panel) was over 1000 nM and the IC50 (MCL cell lines; 2 lines of the MCL panel) was at most 100 nM. For the same compound, the IC50 (MCL cell lines; 3 cell lines of the MCL panel) was under 10 nM, the sensitivity (MCL cell lines; Mino, Jeko-1 (ibrutinib sensitive lines)) was “only moderately sensitive” and the “gIC50” value (MCL cell lines; Z-138, Maver-1 and JVM-2) was “low”. For the same compound, the “reduction of the methyl mark (SDMA western, tumors)” value ([5]; all dose groups) was “greater than 70%”, the body weight loss ([5]; all groups in all efficacy studies presented) was “no body weight loss” and the TGI ([5]; lowest dose group, 25 mg/kg BID) was 40%. The TGI ([5]; top 100 mg/kg BID dose group) was over 90%, the “reduction of the methyl mark (SDMA western, tumors)” value ([5]; top dose groups) was over 98% and the “reduction of the methyl mark (SDMA, tumors)” value ([6]; all dose groups) was 80-95%. For the same compound, the TGI ([6]; lowest dose group) was 50%, the TGI ([6]; top dose groups) was over 90% and the nature of response [7] was “cytotoxic response”. The “breast cancer lines with induction of cell death (increase in <2N)” value (4 breast cancer lines) was 3 out of 4, the SDMA inhibition ([8]; 100 mg/kg BID) was “greater than 90%” and the TGI ([8]; 100 mg/kg BID) was 83%. For the same compound, the SDMA inhibition ([8]; 100 mg/kg QD) was “less than 80%”, the efficacy ([8]; 100 mg/kg QD) was “not efficacious” and the IC50 (GBM cell lines; 144 h, GBM cell lines, 6-day, read-out: gIC50) was 40 to 22000 nM. The nature of response (GBM cell lines; with the exception of the SF539 cell line) was “largely cytostatic” and the IC50 [9] was 0.3 to 14 nM.
For `O=C(NC[C@H](O)CN1CCc2ccccc2C1)c1ccnc(NC2CCC2)c1` [Compound B], the “inhibitory potency compared with Compound C” value (PRMT5/MEP50) was “similar”, the “selectivity over other methyltransferases” value (“selectivity” for short) [2] was “Selectivity for PRMT5/MEP50 over the other methyltransferases” and the IC50 (240 cancer cell lines; AML, CML, HL, MM, breast, glioma, kidney, melanoma, ovarian cancer, read-out: median gIC50) was under 100 nM. The IC50 (240 cancer cell lines; majority of cell lines, read-out: gIC50) was under 1000 nM and the nature of response [7] was “cytotoxic response”.
`O=C(NC[C@H](O)CN1CCc2ccccc2C1)c1cc(NC2COC2)ncn1` [Compound E] was tested, and the “inhibitory potency compared with Compound C” value (PRMT5/MEP50) was “similar”, the “selectivity” value [2] was “Selectivity for PRMT5/MEP50 over the other methyltransferases” and the “share of models with relative growth IC50 values below 1 μM” value [10] was 37%.
With `CC(=O)N1CCC(Nc2cc(C(=O)NC[C@H](O)CN3CCc4ccccc4C3)ccn2)CC1` [Compound F] the “inhibitory potency compared with Compound C” value (PRMT5/MEP50) was “similar” and the “selectivity” value [2] was “Selectivity for PRMT5/MEP50 over the other methyltransferases”.
